Measured values reported in PMC10507085, “Pharmacological inhibition of TBK1/IKKε blunts immunopathology in a murine model of SARS-CoV-2 infection” (Nature Communications, 2023).

Experiments:
Experiment in all cases: biochemical
Design in all cases: KINOMEscan competition binding, DNA-tagged kinase against immobilised ligand, qPCR read-out
ACVRL1 = ACVRL1 (Homo sapiens, UniProt P37023); details: read-out: Percent Control
CAMK4 = CAMK4 (Homo sapiens, UniProt Q16566); details: read-out: Percent Control
RIOK3 = RIOK3 (Homo sapiens, UniProt O14730); details: read-out: Percent Control
BMX = BMX (Homo sapiens, UniProt P51813); details: read-out: Percent Control
PRKACB = PRKACB (Homo sapiens, UniProt P22694); details: read-out: Percent Control
STK4 = STK4 (Homo sapiens, UniProt Q13043); details: read-out: Percent Control
MAP2K7 = MAP2K7 (Homo sapiens, UniProt O14733); details: read-out: Percent Control
MAP2K1 = MAP2K1 (Homo sapiens, UniProt Q02750); details: read-out: Percent Control
SGK1 = SGK1 (Homo sapiens, UniProt O00141); details: read-out: Percent Control
STK32C = STK32C (Homo sapiens, UniProt Q86UX6); details: read-out: Percent Control
TAOK2 = TAOK2 (Homo sapiens, UniProt Q9UL54); details: read-out: Percent Control
STK17B = STK17B (Homo sapiens, UniProt O94768); details: read-out: Percent Control
EPHB1 = EPHB1 (Homo sapiens, UniProt P54762); details: read-out: Percent Control
TXK = TXK (Homo sapiens, UniProt P42681); details: read-out: Percent Control
DYRK2 = DYRK2 (Homo sapiens, UniProt Q92630)
Outline: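 Competition binding format: the test compound competes with an immobilised ligand for DNA-tagged kinase, and the kinase remaining bound to the ligand is quantified by RT-qPCR. An 11-point 3-fold serial dilution was prepared in 100% DMSO at 100× final concentration, then diluted to 1× in the assay.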

DSTYK = DSTYK (Homo sapiens, UniProt Q6XUX3); details: read-out: Percent Control
KIAA0999 = molecular target: T1, KIAA0999 (Homo sapiens, UniProt Q9Y2K2); details: read-out: Percent Control
T1 construct: gene SIK3

HUNK = HUNK (Homo sapiens, UniProt P57058); details: read-out: Percent Control
TAOK3 = TAOK3 (Homo sapiens, UniProt Q9H2K8); details: read-out: Percent Control
MAP4K3 = MAP4K3 (Homo sapiens, UniProt Q8IVH8); details: read-out: Percent Control

DYRK2, sequence (Q92630 whole entry): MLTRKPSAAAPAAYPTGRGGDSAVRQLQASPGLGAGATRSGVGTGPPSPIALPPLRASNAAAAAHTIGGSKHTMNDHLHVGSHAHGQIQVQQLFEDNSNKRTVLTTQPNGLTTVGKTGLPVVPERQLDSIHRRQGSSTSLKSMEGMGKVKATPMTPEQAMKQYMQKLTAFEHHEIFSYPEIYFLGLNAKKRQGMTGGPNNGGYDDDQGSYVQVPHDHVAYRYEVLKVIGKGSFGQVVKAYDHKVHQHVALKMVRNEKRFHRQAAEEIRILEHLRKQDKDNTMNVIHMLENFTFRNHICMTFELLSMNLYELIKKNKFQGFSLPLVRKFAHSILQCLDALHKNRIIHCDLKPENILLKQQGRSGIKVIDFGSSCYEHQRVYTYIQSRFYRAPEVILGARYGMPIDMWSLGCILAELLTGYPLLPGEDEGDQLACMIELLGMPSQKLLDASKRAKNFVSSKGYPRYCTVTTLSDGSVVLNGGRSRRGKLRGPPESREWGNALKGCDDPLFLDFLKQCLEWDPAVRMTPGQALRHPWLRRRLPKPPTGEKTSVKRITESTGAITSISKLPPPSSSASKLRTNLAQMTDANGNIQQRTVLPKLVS
DSTYK, sequence (Q6XUX3 whole entry): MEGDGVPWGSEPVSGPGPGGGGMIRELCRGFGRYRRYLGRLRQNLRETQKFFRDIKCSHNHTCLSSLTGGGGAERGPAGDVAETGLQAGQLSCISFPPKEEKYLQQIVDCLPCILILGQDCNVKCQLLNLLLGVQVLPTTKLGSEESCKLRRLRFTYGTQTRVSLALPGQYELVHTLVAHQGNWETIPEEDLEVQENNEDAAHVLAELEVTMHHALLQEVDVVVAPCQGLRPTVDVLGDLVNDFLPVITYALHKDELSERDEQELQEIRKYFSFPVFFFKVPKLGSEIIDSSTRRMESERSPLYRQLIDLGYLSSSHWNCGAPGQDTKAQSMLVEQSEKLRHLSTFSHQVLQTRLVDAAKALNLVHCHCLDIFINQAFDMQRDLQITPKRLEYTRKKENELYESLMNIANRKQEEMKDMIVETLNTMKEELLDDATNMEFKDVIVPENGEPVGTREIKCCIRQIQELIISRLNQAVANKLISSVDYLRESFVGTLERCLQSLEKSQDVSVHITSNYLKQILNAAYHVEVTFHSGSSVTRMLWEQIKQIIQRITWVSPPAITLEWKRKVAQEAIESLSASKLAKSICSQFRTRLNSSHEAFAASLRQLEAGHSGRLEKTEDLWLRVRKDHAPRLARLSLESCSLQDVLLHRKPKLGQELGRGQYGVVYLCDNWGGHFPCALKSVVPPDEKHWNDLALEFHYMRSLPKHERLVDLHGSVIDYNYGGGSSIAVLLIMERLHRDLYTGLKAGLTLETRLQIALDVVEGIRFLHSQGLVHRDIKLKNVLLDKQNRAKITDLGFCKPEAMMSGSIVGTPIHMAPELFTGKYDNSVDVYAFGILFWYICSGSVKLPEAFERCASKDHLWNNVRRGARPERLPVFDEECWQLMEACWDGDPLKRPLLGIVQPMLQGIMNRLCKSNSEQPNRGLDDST
RIOK3, sequence (O14730 whole entry): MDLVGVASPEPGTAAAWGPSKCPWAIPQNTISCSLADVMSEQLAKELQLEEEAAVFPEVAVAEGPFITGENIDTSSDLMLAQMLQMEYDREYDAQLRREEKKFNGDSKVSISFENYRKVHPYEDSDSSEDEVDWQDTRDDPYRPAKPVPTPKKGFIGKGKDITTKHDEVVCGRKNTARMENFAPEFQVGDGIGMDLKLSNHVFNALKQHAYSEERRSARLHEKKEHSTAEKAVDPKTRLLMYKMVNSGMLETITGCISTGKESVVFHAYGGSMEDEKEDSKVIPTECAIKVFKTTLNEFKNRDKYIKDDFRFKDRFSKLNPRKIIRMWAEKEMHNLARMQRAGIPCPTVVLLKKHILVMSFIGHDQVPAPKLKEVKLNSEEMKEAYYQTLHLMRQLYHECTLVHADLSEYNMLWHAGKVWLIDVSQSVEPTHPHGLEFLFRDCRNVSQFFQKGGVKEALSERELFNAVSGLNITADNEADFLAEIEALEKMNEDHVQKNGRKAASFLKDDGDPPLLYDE
TAOK2, sequence (Q9UL54 whole entry): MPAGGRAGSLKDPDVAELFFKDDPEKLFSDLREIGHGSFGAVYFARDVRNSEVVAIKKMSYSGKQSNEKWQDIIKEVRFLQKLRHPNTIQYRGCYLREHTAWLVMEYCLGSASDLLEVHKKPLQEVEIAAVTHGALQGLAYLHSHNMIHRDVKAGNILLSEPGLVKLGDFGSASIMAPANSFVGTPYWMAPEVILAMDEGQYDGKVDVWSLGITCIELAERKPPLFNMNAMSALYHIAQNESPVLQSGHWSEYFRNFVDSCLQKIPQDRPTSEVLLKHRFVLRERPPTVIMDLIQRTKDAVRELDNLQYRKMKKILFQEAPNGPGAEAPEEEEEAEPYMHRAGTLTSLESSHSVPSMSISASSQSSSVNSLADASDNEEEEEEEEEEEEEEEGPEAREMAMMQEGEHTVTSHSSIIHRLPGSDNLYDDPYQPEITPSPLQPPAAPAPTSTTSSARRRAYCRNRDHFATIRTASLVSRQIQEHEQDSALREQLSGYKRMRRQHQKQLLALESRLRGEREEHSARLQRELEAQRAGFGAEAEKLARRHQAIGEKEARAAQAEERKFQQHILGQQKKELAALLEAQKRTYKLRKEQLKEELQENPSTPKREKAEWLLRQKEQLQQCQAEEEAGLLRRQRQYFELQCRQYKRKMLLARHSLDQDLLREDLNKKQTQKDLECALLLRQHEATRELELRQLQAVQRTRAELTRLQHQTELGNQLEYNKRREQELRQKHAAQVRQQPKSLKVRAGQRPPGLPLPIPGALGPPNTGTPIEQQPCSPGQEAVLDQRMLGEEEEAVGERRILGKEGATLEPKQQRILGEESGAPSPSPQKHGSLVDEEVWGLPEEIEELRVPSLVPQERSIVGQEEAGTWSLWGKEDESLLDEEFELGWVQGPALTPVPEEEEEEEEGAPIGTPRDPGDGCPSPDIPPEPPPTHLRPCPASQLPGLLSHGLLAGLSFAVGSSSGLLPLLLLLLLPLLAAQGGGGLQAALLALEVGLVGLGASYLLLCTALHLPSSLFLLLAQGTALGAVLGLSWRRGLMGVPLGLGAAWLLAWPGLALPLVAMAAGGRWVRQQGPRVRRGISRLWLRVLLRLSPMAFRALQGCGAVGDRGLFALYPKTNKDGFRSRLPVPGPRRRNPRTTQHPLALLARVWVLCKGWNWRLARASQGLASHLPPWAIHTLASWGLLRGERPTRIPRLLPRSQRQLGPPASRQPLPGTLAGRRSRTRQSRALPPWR
MAP2K7, sequence (O14733 whole entry): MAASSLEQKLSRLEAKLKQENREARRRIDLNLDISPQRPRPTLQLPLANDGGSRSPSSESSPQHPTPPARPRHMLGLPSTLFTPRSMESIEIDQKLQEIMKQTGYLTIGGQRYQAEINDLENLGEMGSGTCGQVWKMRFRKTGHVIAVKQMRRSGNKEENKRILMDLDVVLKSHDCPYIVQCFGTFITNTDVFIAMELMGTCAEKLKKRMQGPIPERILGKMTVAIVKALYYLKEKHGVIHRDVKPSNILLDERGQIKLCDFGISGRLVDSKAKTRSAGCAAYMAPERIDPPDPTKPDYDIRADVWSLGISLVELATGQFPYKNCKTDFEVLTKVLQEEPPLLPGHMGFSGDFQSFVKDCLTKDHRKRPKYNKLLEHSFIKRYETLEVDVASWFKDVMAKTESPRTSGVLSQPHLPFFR
ACVRL1, sequence (P37023 whole entry): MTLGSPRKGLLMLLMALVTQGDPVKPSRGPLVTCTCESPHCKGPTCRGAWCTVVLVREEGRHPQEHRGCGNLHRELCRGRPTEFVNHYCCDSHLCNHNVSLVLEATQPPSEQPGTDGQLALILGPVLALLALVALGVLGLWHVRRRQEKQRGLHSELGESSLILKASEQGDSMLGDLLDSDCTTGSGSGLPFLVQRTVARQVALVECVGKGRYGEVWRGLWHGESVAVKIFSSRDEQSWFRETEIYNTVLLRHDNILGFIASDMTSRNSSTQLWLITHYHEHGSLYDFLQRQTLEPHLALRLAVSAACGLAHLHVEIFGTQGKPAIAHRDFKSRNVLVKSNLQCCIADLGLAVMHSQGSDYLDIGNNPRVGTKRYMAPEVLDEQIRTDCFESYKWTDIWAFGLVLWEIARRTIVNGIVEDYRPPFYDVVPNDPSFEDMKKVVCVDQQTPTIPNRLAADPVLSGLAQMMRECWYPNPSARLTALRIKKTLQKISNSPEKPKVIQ
STK32C, sequence (Q86UX6 whole entry): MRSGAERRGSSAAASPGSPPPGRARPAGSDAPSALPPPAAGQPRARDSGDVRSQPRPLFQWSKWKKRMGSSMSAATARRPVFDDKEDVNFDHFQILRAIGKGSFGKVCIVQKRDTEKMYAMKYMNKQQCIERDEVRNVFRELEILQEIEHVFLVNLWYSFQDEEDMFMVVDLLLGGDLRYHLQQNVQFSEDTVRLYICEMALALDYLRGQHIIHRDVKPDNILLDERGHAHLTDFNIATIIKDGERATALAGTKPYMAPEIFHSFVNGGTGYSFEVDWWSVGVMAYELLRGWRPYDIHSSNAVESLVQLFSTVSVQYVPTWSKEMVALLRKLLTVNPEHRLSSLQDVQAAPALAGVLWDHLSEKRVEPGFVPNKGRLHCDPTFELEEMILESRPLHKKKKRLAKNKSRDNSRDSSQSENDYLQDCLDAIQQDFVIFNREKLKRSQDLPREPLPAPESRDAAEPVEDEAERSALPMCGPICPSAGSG

In the case of Oc1ccc(C2=Cc3ccc(O)cc3OC2)cc1 [compound 1, idronoxil], the remaining binding at 10 µM (ACVRL1) is reported as 92%, the remaining binding at 10 µM (CAMK4) is reported as 100% and the remaining binding at 10 µM (RIOK3) is reported as 100%. It also gave a remaining binding at 10 µM (BMX) of 75%, a remaining binding at 10 µM (PRKACB) of 88% and a remaining binding at 10 µM (STK4) of 97%. The remaining binding at 10 µM (MAP2K7) was 91%, the remaining binding at 10 µM (MAP2K1) was 86% and the remaining binding at 10 µM (SGK1) was 77%. The remaining binding at 10 µM (STK32C) was 54%, the remaining binding at 10 µM (TAOK2) was 90% and the remaining binding at 10 µM (STK17B) was 40%. It also gave a remaining binding at 10 µM (EPHB1) of 84%, a remaining binding at 10 µM (TXK) of 87% and a Kd (DYRK2) of 2700 nM. The remaining binding at 10 µM (DYRK2; read-out: Percent Control) was 11%, the remaining binding at 10 µM (DSTYK) was 74% and the remaining binding at 10 µM (KIAA0999) was 89%. The remaining binding at 10 µM (HUNK) was 69%, the remaining binding at 10 µM (TAOK3) was 53% and the remaining binding at 10 µM (MAP4K3) was 92%.
